Measurements reported in PMC9775322, “An Integrated Analysis of Mechanistic Insights into Biomolecular Interactions and Molecular Dynamics of Bio-Inspired Cu(II) and Zn(II) Complexes towards DNA/BSA/SARS-CoV-2 3CL^pro by Molecular Docking-Based Virtual Screening and FRET Detection” (Biomolecules, 2022).

Key:
[1] = test system: NHDF Normal human dermal fibroblasts cell line; test: MTT cell viability assay; assay type: cell-based; details: 72 h exposure
[2] = test system: Chromo bacterium violaceum; test: Agar disc diffusion antibacterial test; details: for diameter of clear zone inhibition / Inhibition %: C, (-) Chromo bacterium violaceum; for diameter of clear zone inhibition: 20 µL of 100 µM on 6 mm disc, Control (DMSO) = 6 mm; for Inhibition %: (T–C)/T × 100
[3] = test system: A549 Human lung cancer cell line; test: MTT cell viability assay; assay type: cell-based; details: 72 h exposure, at least three independent experiments
[4] = test system: Salmonella enteric serovar typhi; test: Agar disc diffusion antibacterial test; assay type: cell-based; details: B; for Inhibition %: (T–C)/T × 100
[5] = test system: HepG2 Liver cancer cell line; test: MTT cell viability assay; assay type: cell-based; details: 72 h exposure, at least three independent experiments
[6] = DPPH radical scavenging assay; assay type: biochemical; details: 517 nm
CT-DNA = test: DNA thermal denaturation (biothermodynamic properties); assay type: binding, calf; details: for ΔS°: (ΔH°−ΔG°)/Tm; for ΔH°: Van't Hoff equation; for Tm °C of DNA-compound adduct / Tm (K) of DNA-compound adduct: compound 50 μM : CT-DNA 50 μM (1:1), 260 nm; for Tm °C of DNA-compound adduct: CT DNA alone 68 °C; for Tm (K) of DNA-compound adduct: CT DNA alone 341 K; for ΔTm °C: melting temperature change vs DNA alone; for ΔG°: −R·Tm·ln Km
Experimental: The biothermodynamic properties were obtained from absorption titration by a UV–visible spectrophotometer, accomplished with a temperature-controlled sample container in both the presence and absence of the substances. In a 5 mM Tris-HCl/50 mM NaCl buffer solution with a pH of 7.4, each test substance (50 μM) was incubated with CT-DNA (50 μM) in a 1:1 ratio. The test materials were all warmed at a rate of five degrees Celsius per minute to temperatures between 25 and 100 °C, and the changes in absorbance at 260 nm were carefully monitored. […]
ɛa is represented as the apparent absorption coefficient value for the MLCT band at a specific concentration of deoxyribonucleic acid and evaluated from Abs/[complex]. ɛ f and ɛb are the absorption coefficients for the chemical substance alone and completely interacted with deoxyribonucleic acid, respectively. ∆Amax = (Amax–A0); ∆A=(Ax–A0), where A0, Ax and Amax are denoted as the optical density of chemical substances alone, the middle form, and the completely interacted form with deoxyribonucleic acid, respectively.
2.2.3. Evaluation of biothermodynamic properties
The thermal denaturation study of CT-DNA is an efficient tool for examining the stability of test compounds bound to double-stranded DNA. […]
double to single stranded DNA. The biothermodynamic parameters also involve powerful proof for binding between test compounds and DNA. The denaturation of the biomolecules depends on T m, pH and non-physiological concentrations of salt, organic solvents and other chemical agents, etc. The DNA double helix breaks into two single strands as the temperature or pH rises, which is ascribed to the breaking of hydrophobic stacking attractions and the dissolution of H-bonds between the DNA base pairs as a result of the hydroxide ions' […]
withdrawing of the hydrogen ions (H +) from DNA base pairs. It causes a hyperchromic shift […]
inversely proportional to viscosity. Low salt concentration, conversely, can also denature DNA double-strands by eliminating the ions that stabilize the negative charges on the two strands from each other. By using UV-Vis analysis in a temperature-controlled sample holder, DNA thermal denaturation was carried out both in the absence and presence of the test compounds. In 5mM Tris-HCl /50 mM NaCl buffer (pH = 7.4) solution, each test substance (50 μM) was incubated in a 1:1 ratio with CT- DNA (50 μM). All samples were heated in the range of 25 to 100 °C at a rate of 5 °C per minute and the absorbance changes at 260 nm were constantly monitored. T m of DNA alone was evaluated as the midpoint of the sigmoid’ curves plotted absorbance vs temperature profiles. The Tm is depends on the double-stranded DNA stability. Due to substantial intercalation in DNA-complex adducts, the […]
temperature. When increasing temperature, double-stranded DNA converts into two single strands at the melting point, which leads to hyperchromic effect due to reducing the base-base interaction. As compared to DNA alone at the same high temperature, the incubated DNA solution with test compounds leads to hyporchromic effect accompanied with red shift.
Strong interactions between complexes and DNA, which restrict the separation of the double helix, cause the stabilization, and as a result, T m rises. In accordance with the T m, 50% of DNA is in its native double-stranded state, and the remaining 50% is in its denaturalized single-stranded state.
ΔG° = – R.Tm. lnKm = ΔH°– Tm ΔS° (S10)
Where K1 is represented as the binding constant value at 298 K (T r), the binding constant K 2 (Km), which indicates the temperature at which substances melt their DNA (T m K), This […]
technique offers crucial data on binding constants and associated ΔG °, ΔS° and ΔH° findings for compound-deoxyribonucleic acid systems. […]
not deliver definite confirmation for the exact mode of interactions. The experiment

[7] = test system: MCF-7 Breast cancer cell line; test: MTT cell viability assay; assay type: cell-based; details: 72 h exposure, at least three independent experiments
[8] = 20 µL of 100 µM on 6 mm disc, Control (DMSO) = 6 mm

| SMILES | IC50 [1] | diameter of clear zone inhibition [2] | Inhibition % [2] | IC50 [3] | diameter of clear zone inhibition [4, 8] | Inhibition % [4] | IC50 [5] | % Inhibition, DPPH ([6]; 40 µM) | % Inhibition, DPPH ([6]; 80 µM) | % Inhibition, DPPH ([6]; 120 µM) | % Inhibition, DPPH ([6]; 160 µM) | % Inhibition, DPPH ([6]; 200 µM) | % Inhibition, DPPH ([6]; 240 µM) | Binding Constant Kr (or) K1 @ 298 K (CT-DNA) | ΔS° (CT-DNA) | ΔH° (CT-DNA) | Tm °C of DNA-compound adduct (CT-DNA) | Tm (K) of DNA-compound adduct (CT-DNA) | ΔTm °C (CT-DNA) | ΔG° (CT-DNA) | other results |
| --- | --- | --- | --- | --- | --- | --- | --- | --- | --- | --- | --- | --- | --- | --- | --- | --- | --- | --- | --- | --- | --- |
| [Cu+2].[O-]c1ccccc1N=Cc1ccc(N2CCOCC2)cc1.[O-]c1ccccc1N=Cc1ccc(N2CCOCC2)cc1.c1cnc2c(c1)ccc1cccnc12 [(1b), [Cu^II(L)2(phen)]] | 72.6 ± 2.9 µM | 11 mm | 45% | 29.7 ± 1.2 µM | 10 mm | 40% | 30.9 ± 1.2 µM | 18.11% | 30.88% | 36.82% | 52.42% | 58.65% | 70.12% | 20610 M⁻¹ | −7.6237 cal mol^−1 K^−1 | -8.1538 kcal/mol | 80.5 °C | 353.5 K | 12.5 °C | -5.4588 kcal/mol | IC50 [6]: 160 µM; IC50 [7]: 31.7 ± 1.3 µM |
| [O-]c1ccccc1N=Cc1ccc(N2CCOCC2)cc1.[O-]c1ccccc1N=Cc1ccc(N2CCOCC2)cc1.[Zn+2].c1cnc2c(c1)ccc1cccnc12 [(2b), [Zn^II(L)2(phen)]] | 74.5 ± 3 µM | 11 mm | 45% | 32.1 ± 1.3 µM | 10 mm | 40% | 33.4 ± 1.4 µM | 12.82% | 24.88% | 30.89% | 40.27% | 50.12% | 60.66% | 19930 M⁻¹ | −9.1806 cal mol^−1 K^−1 | -8.5979 kcal/mol | 78.5 °C | 351.5 K | 10.5 °C | -5.3709 kcal/mol | IC50 [6]: 200 µM; IC50 [7]: 32.5 ± 1.3 µM |
| Oc1ccccc1N=Cc1ccc(N2CCOCC2)cc1 [(HL), 2-(4-morpholinobenzylideneamino)phenol] |  |  | 45% |  |  | 33% |  | 09.45% | 15.21% | 26.36% | 34.56% | 39.41% | 52.45% | 15169 M⁻¹ | −13.7851 cal mol^−1 K^−1 | -9.8083 kcal/mol | 74 °C | 347.0 K | 6 °C | -5.0249 kcal/mol | zone of inhibition at 100 µM ([2]; read-out: diameter of clear zone inhibition): 11 mm; zone of inhibition at 100 µM ([4]; 20 µL of 100 µM on 6 mm disc, Control (DMSO) = 6 mm, read-out: diameter of clear zone inhibition): 9 mm |
